Experimental data taken from ChEMBL document CHEMBL1201862, “PubChem BioAssay data set” (2004).
Calls of active or inactive are those of the source. Unless noted, no cut-off for these calls is given here.

Legend:
Format in all cases: functional
[1] = target: T1, Delta-type opioid receptor (Homo sapiens, UniProt P41143); test: SAR Analysis of Agonists of the DOR Receptor using an Image-Based Assay - Set 2. [Related pubchem assays (depositor defined):AID1777, AID1785, AID1786, AID1966, AID2133, AID2136, AID2284, AID2285, AID2370]
T1 sequence (P41143 whole entry): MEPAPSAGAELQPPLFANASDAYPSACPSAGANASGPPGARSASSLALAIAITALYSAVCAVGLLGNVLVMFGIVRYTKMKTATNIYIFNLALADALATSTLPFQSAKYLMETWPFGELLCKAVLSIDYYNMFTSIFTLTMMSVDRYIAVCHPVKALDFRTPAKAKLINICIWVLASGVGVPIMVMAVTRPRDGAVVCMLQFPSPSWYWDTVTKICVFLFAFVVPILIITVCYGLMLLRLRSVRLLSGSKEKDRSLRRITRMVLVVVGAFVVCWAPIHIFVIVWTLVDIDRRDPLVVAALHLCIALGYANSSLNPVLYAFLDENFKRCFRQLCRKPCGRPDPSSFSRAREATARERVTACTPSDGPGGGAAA

[2] = target: T2, Kappa-type opioid receptor (Homo sapiens, UniProt P41145); test: SAR analysis of Agonists of the Kappa Opioid Receptor (KOR) using an Image-Based Assay - Set 2. [Related pubchem assays (depositor defined):AID1777, AID1786, AID1966, AID2133, AID2136, AID2284, AID2285, AID2359]
T2 sequence (P41145 whole entry): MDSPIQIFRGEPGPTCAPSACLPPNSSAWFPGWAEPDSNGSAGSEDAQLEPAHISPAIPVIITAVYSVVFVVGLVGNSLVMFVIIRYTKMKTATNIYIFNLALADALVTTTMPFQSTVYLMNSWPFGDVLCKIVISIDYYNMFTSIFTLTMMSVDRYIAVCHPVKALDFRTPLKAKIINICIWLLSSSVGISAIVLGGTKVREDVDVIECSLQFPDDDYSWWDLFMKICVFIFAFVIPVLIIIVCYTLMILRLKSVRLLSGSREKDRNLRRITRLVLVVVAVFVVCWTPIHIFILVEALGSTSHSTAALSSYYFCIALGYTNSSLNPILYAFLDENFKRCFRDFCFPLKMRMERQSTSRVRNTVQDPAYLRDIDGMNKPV

[3] = target: T2, Kappa-type opioid receptor; test: SAR analysis of small molecule agonists of the kappa opioid receptor via a luminescent beta-arrestin assay - Set 2. [Related pubchem assays (depositor defined):AID1777, AID1785, AID1786, AID1966, AID2133, AID2136, AID2284, AID449737]
[4] = target: T3, Mu-type opioid receptor (Homo sapiens, UniProt P35372); test: SAR Analysis of Agonists of the MOR Receptor using an Image-Based Assay - Set 2. [Related pubchem assays (depositor defined):AID1777, AID1785, AID1786, AID1966, AID2133, AID2136, AID2284, AID2285, AID2352]
T3 sequence (P35372 whole entry): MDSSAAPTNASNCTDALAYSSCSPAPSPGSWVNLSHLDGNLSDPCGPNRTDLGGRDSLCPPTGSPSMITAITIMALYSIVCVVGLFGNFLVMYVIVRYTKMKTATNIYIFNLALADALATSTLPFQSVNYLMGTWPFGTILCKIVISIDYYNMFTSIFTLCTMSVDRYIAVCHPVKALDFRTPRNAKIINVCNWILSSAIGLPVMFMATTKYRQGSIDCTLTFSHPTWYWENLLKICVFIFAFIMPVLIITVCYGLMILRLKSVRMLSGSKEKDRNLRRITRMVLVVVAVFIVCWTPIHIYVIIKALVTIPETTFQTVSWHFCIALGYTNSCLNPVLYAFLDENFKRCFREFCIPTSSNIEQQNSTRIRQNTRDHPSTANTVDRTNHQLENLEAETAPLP

[5] = target: T2, Kappa-type opioid receptor; test: SAR analysis of Antagonists of the Kappa Opioid Receptor (KOR) using an Image-Based Assay - Set 2. [Related pubchem assays (depositor defined):AID1777, AID1785, AID1786, AID1966, AID2133, AID2136, AID2284, AID2285, AID2348]
[6] = target: T1, Delta-type opioid receptor; test: SAR Analysis of Antagonists of the DOR Receptor using an Image-Based Assay - Set 2. [Related pubchem assays (depositor defined):AID1777, AID1785, AID1786, AID1966, AID2133, AID2136, AID2284, AID2285, AID2357]
[7] = target: T3, Mu-type opioid receptor; test: SAR Analysis of Antagonists of the MOR Receptor using an Image-Based Assay - Set 2. [Related pubchem assays (depositor defined):AID1777, AID1785, AID1786, AID1966, AID2133, AID2136, AID2284, AID2285, AID2420]
[8] = target: SUMO E1/E2 (Homo sapiens, UniProt P63279+Q9UBE0+Q9UBT2); test: SAR analysis of SUMOylation using HTRF in an in-Vitro dose response assay. [Related pubchem assays (depositor defined):AID2006, AID2011, AID2018, AID2069, AID2658]
[9] = target: T4, Voltage-gated N-type calcium channel alpha-1B subunit/Amyloid beta A4 precursor protein-binding family A member 1 (Homo sapiens, UniProt Q00975+Q02410); test: disruptors of Mint-PDZ/N-type channel peptide interaction – biochemical, HTRF, set 2, SAR follow-up (AID 434980)
T4 sequence (Q00975 whole entry): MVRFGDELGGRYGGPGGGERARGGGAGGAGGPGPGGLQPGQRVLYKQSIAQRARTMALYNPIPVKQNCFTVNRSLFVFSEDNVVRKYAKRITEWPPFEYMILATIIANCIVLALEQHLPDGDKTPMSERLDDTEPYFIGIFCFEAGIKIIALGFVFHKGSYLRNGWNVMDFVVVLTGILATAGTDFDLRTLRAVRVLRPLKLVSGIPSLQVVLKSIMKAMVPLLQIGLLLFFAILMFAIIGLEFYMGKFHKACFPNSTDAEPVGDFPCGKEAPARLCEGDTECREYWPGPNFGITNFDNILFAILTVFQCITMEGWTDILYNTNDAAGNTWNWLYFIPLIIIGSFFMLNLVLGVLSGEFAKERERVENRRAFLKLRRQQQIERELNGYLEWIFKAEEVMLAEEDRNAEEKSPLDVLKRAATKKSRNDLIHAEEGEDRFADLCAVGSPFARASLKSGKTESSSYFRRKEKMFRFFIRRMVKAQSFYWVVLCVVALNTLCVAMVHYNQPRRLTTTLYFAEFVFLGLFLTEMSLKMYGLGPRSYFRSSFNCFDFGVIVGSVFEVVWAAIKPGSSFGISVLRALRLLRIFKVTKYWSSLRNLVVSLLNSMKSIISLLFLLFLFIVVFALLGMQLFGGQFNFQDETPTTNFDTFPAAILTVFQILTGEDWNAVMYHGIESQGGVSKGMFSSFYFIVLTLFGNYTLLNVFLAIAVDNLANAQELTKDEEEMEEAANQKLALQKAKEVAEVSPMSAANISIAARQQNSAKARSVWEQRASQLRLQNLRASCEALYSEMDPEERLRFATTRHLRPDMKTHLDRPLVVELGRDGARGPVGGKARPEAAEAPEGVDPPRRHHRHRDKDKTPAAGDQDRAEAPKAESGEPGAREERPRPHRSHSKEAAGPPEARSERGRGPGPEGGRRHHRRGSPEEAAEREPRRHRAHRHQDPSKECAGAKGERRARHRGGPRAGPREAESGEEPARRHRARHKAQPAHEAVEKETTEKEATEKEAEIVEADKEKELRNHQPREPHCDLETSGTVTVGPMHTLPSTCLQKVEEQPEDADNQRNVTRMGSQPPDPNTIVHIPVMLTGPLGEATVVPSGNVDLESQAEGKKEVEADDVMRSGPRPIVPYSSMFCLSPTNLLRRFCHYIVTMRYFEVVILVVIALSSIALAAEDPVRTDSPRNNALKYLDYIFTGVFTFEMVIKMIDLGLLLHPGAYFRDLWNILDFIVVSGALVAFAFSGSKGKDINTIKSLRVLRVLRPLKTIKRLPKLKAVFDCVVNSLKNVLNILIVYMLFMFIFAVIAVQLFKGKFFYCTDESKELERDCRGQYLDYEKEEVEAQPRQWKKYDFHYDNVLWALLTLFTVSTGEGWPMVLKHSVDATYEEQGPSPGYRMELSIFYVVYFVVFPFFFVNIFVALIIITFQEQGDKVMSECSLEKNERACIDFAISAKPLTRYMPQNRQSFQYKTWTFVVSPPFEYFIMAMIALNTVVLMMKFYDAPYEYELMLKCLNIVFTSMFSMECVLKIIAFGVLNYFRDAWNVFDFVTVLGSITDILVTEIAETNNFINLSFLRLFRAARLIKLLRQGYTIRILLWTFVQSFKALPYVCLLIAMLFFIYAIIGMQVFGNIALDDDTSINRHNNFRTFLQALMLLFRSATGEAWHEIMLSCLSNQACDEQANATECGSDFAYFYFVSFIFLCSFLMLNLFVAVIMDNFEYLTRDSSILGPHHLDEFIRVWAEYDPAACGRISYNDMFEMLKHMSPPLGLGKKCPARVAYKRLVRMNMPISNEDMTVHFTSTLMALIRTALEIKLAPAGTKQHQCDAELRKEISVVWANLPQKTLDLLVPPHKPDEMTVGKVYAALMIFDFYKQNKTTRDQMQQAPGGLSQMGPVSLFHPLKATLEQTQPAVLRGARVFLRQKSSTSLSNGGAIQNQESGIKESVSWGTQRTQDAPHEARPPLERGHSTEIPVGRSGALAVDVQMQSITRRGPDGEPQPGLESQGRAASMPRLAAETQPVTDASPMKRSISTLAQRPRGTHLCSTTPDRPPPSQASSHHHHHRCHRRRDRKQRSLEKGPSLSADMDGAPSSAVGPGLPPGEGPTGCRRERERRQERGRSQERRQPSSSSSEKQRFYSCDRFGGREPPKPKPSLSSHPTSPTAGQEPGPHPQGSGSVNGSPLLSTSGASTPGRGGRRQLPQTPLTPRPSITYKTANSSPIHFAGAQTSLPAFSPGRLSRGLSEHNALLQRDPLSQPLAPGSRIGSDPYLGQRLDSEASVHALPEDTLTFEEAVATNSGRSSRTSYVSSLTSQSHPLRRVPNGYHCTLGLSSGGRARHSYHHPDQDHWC
T4 sequence (Q02410 whole entry): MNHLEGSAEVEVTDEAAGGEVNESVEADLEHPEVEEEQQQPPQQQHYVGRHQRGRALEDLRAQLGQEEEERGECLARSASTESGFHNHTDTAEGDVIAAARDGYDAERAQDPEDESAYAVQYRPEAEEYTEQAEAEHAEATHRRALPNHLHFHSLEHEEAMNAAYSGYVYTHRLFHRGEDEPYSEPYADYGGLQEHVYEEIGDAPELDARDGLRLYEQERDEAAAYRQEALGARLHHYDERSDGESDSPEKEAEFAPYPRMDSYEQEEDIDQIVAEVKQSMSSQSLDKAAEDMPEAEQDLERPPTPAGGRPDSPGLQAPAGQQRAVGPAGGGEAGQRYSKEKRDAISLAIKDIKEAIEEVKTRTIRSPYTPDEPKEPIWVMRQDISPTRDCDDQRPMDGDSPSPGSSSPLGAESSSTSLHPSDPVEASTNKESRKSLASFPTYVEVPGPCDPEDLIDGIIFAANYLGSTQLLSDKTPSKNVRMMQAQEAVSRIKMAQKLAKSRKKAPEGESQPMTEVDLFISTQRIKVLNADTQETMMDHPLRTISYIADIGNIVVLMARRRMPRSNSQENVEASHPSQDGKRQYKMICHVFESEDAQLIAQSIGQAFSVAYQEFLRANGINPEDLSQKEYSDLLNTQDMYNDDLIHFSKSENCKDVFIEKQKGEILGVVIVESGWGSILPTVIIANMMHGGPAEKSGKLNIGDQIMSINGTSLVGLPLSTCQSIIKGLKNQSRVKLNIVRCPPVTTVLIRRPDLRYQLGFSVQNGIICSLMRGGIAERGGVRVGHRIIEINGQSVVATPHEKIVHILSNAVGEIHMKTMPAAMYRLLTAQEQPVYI

[10] = target: T4, Voltage-gated N-type calcium channel alpha-1B subunit/Amyloid beta A4 precursor protein-binding family A member 1; test: disruptors of Mint-PDZ/N-type channel peptide interaction – biochemical, HTRF, SAR follow-up (AID 2489)

SMILES	EC50 [1]	EC50 [2]	EC50 [3]	EC50 [4]	IC50 [5]	IC50 [6]	IC50 [7]	IC50 [8]	IC50 [9]	IC50 [10]
c1ccc(CSc2nnc(-c3ccccn3)n2Cc2ccco2)cc1	> 32 µM (inactive)	> 32 µM (inactive)	17.9 µM (inactive)	> 32 µM (inactive)	> 32 µM (inactive)	> 32 µM (inactive)	> 32 µM (inactive)			
COc1ccc(CCNC(=O)COC(=O)c2cc(-c3ccco3)nc3ccccc23)cc1								11.5 µM (active)	12.2 µM (active)	32.9 µM (active)
